US11938189B2, “Compositions and methods for stabilizing protein-containing formulations” (Genentech, Inc., priority 2010, dated 2024)

Columns and labels:
[1] = in water at 20-25° C., cited from earlier work; for CMC Value (% w/v): cells printed without %
[2] = tested on: Humanized anti-oxidized LDL monoclonal antibody; experiment: Light-induced oxidation of tryptophan residues (LC/MS/MS tryptic peptide map); assay type: physicochemical; conditions: Light 24 hrs
Protocol: MAb samples and light treatment: Humanized anti-oxidized LDL monoclonal antibody, was produced at Genentech, Inc. from a CHO cell line. Three independent samples were prepared for photostability studies: 1) control sample, vial wrapped with aluminum foil; 2) test sample, vial light exposed (unwrapped); 3) test sample, vial light exposed (unwrapped) containing the specified non-ionic surfactant. Both control & light exposed samples were kept in a light box for 24 hrs. Light exposure following ICH guideline with following setting for a Atlas SUNTEST CPS+Light Box: Irradiance level=250 watts/square meter; Time set for 24 hours; Total UV dose=538 watt-hours/square meter; Total visible dose=1,320,000 lux-hours.
LC/MS/MS of tryptic MAb peptide map: Samples were digested with trypsin after reduction and alkylation. The resulting peptides were analyzed with a Thermo LTQ-Orbitrap mass spectrometer coupled with an Agilent 1200 capillary HPLC system. HPLC column: Jupiter 5 um C18 250×1.0 mm, flow rate: 70 uL/min, column oven temperature: 55° C. Solvent A: 0.1% TFA in water, B: 0.09% TFA in 90% ACN. Orbitrap setting: MS resolution 60000, MS/MS collected in data dependent mode, using LTQ.
The effect of light, and the protective effect of non-ionic surfactants, on the oxidation of tryptophan residues on an anti-oxidized LDL antibody was determined.

[3] = tested on: anti-MUC16 monoclonal antibody; experiment: Shaking-induced aggregation (150 rpm), percent monomer by size-exclusion chromatography; assay type: physicochemical; conditions: surfactant at one half of its CMC; shaking 150 rpm, 37° C., 64 hours; FIG. 1
Protocol: In this set of studies, a buffered solution (20 mM sodium phosphate buffer, pH 7.4) of monoclonal antibody was subjected to shaking on an orbital shaker at 150 rpm, at a controlled temperature of 37° C. These studies were carried out using a 3 ml solution fill of the antibody solution in a 6 cc glass vial. Samples were withdrawn at regular intervals and analyzed for percent monomer using size-exclusion chromatography. Various surfactants of the class of alkylglycosides were evaluated for their effectiveness to prevent protein aggregation during shaking. The surfactants were used at concentrations below their respective critical micelle concentration (CMC) or above their respective CMC.
The surfactants were employed at one half the concentration of their respective CMC values, i.e., 1.1 mM (0.035% w/v) n-decyl-β-D-glucopyranoside, 9 mM (0.24%) n-octyl-β-D-glucopyranoside and 0.04 mM (0.0035%) polysorbate 20.

[4] = tested on: anti-CD11a monoclonal antibody; experiment: Oxidation of Met256 on storage in surfactant-containing antibody solution; assay type: physicochemical; conditions: 0.1% w/v surfactant, pH 6.0, stored at 5° C. or 40° C. for 2 or 4 weeks; FIG. 15
Protocol: In a second experiment, oxidation of the Met256 amino acid residue in an anti-CD11a monoclonal antibody in solutions containing either n-decyl-β-D-glucopyranoside, n-octyl-β-D-glucopyranoside, or polysorbate 20 was evaluated. For this purpose, 3 ml of the buffered antibody solution (pH 6.0) containing 0.1% w/v of the surfactant was stored in 6 cc vials at either 5° C. or 40° C. for a period of either 2 or 4 weeks.

## CCCCCCCO[C@@H]1O[C@H](CO)[C@@H](O)[C@H](O)[C@H]1O [n-heptyl-β-D-glucopyranoside]
[1]
  CMC Value: 70 mM
  CMC Value (w/v): 1.9% w/v

## CCCCCCCCCCCCO[C@@H]1O[C@H](CO)[C@@H](O)[C@H](O)[C@H]1O [n-dodecyl-β-D-glucopyranoside, reference compound]
[2]; 0.03 mM surfactant
  % Oxidized Trp33: 0.4%
  % Oxidized Trp92: 8.9%
[1]
  CMC Value (% w/v): 0.0066 % w/v
  CMC Value: 0.19 mM

## CCCCCCCCCCO[C@@H]1O[C@H](CO)[C@@H](O)[C@H](O)[C@H]1O [n-decyl-β-D-glucopyranoside]
[3]
  prevention of shaking-induced loss of percent monomer: effective in preventing loss of monomer
[4]
  increase in percent oxidized Met256 vs initial sample: no significant increase
[1]
  CMC Value: 2.2 mM
  CMC Value (w/v): 0.07% w/v

## CCCCCCCCCO[C@@H]1O[C@H](CO)[C@@H](O[C@H]2O[C@H](CO)[C@@H](O)[C@H](O)[C@H]2O)[C@H](O)[C@H]1O [n-nonyl-β-D-maltopyranoside]
[1]
  CMC Value: 6 mM
  CMC Value (w/v): 0.28% w/v

## CC(CCO[C@@H]1O[C@H](CO)[C@@H](O)[C@H](O)[C@H]1O)C1CCCCC1 (stereo partly drawn) [3-cyclohexyl-1-butyl-β-D-glucoside]
[1]
  CMC Value: 1.8 mM
  CMC Value (w/v): 0.058% w/v

## CCCCCCCCCCO[C@@H]1O[C@H](CO)[C@@H](O[C@H]2O[C@H](CO)[C@@H](O)[C@H](O)[C@H]2O)[C@H](O)[C@H]1O [n-decyl-β-D-maltopyranoside]
[1]
  CMC Value: 1.8 mM
  CMC Value (w/v): 0.087% w/v

## CCCCCCCCCCCCO[C@@H]1O[C@H](CO)[C@@H](O[C@H]2O[C@H](CO)[C@@H](O)[C@H](O)[C@H]2O)[C@H](O)[C@H]1O [n-dodecyl-β-D-maltopyranoside, reference compound]
[2]; 0.03 mM surfactant
  % Oxidized Trp33: 0.0%
  % Oxidized Trp92: 10.6%
[2]; 0.39 mM surfactant
  % Oxidized Trp33: 0.1%
  % Oxidized Trp92: 2.7%
[1]
  CMC Value (% w/v): 0.0087 % w/v
  CMC Value: 0.17 mM

## OC[C@H]1O[C@H](O[C@H]2[C@H](O)[C@@H](O)[C@H](OCC3CCCCC3)O[C@@H]2CO)[C@H](O)[C@@H](O)[C@@H]1O [cyclohexyl-methyl-β-D-maltoside]
[1]
  CMC Value: 340 mM
  CMC Value (w/v): 15% w/v

## OC[C@H]1O[C@H](O[C@H]2[C@H](O)[C@@H](O)[C@H](OCCC3CCCCC3)O[C@@H]2CO)[C@H](O)[C@@H](O)[C@@H]1O [2-cyclohexyl-ethyl-β-D-maltoside]
[1]
  CMC Value: 120 mM
  CMC Value (w/v): 5.4% w/v

## OC[C@H]1O[C@H](O[C@H]2[C@H](O)[C@@H](O)[C@H](OCCCCCC3CCCCC3)O[C@@H]2CO)[C@H](O)[C@@H](O)[C@@H]1O [5-cyclohexyl-pentyl-β-D-maltoside]
[1]
  CMC Value: 2.4 mM
  CMC Value (w/v): 0.12% w/v

## CCCCCCO[C@@H]1O[C@H](CO)[C@@H](O)[C@H](O)[C@H]1O [n-hexyl-β-D-glucopyranoside]
[2]; 0.39 mM surfactant
  % Oxidized Trp33: 0.3%
  % Oxidized Trp92: 4.9%
[2]; 300 mM surfactant
  % Oxidized Trp33: 0.0%
  % Oxidized Trp92: 1.6%
[1]
  CMC Value: 250 mM
  CMC Value (w/v): 6.6% w/v

## OC[C@H]1O[C@H](O[C@H]2[C@H](O)[C@@H](O)[C@H](OCCCC3CCCCC3)O[C@@H]2CO)[C@H](O)[C@@H](O)[C@@H]1O [3-cyclohexyl-propyl-β-D-maltoside]
[1]
  CMC Value: 34.5 mM
  CMC Value (w/v): 1.6% w/v

## OC[C@H]1O[C@H](O[C@H]2[C@H](O)[C@@H](O)[C@H](OCCCCC3CCCCC3)O[C@@H]2CO)[C@H](O)[C@@H](O)[C@@H]1O [4-cyclohexyl-butyl-β-D-maltoside]
[1]
  CMC Value: 7.6 mM
  CMC Value (w/v): 0.37% w/v

## CCCCCCCCCO[C@@H]1O[C@H](CO)[C@@H](O)[C@H](O)[C@H]1O [n-nonyl-β-D-glucopyranoside]
[1]
  CMC Value: 6.5 mM
  CMC Value (w/v): 0.2% w/v

## CCCCCCO[C@@H]1O[C@H](CO)[C@@H](O[C@H]2O[C@H](CO)[C@@H](O)[C@H](O)[C@H]2O)[C@H](O)[C@H]1O [n-hexyl-β-D-maltopyranoside]
[2]; 0.39 mM surfactant
  % Oxidized Trp33: 0.3%
  % Oxidized Trp92: 5.7%
[2]; 300 mM surfactant
  % Oxidized Trp33: 0.0%
  % Oxidized Trp92: 2.2%
[1]
  CMC Value: 210 mM
  CMC Value (w/v): 8.9% w/v

## CCCCCCCCO[C@@H]1O[C@H](CO)[C@@H](O[C@H]2O[C@H](CO)[C@@H](O)[C@H](O)[C@H]2O)[C@H](O)[C@H]1O [n-octyl-β-D-maltopyranoside]
[1]
  CMC Value: 19.5 mM
  CMC Value (w/v): 0.89% w/v

## OC[C@H]1O[C@@H](OCCCC2CCCCC2)[C@H](O)[C@@H](O)[C@@H]1O [3-cyclohexyl-1-propyl-β-D-glucoside]
[1]
  CMC Value: 28 mM
  CMC Value (w/v): 0.86% w/v
